SMILES strings stand for the structures.

For this assay, the target named is T1, human liver GK (Homo sapiens, UniProt P35557).
T1 construct: GST (glutathione S-transferase) (N); made in house; host or cells: E. coli
T1 sequence (P35557 1-466 isoform P35557-2): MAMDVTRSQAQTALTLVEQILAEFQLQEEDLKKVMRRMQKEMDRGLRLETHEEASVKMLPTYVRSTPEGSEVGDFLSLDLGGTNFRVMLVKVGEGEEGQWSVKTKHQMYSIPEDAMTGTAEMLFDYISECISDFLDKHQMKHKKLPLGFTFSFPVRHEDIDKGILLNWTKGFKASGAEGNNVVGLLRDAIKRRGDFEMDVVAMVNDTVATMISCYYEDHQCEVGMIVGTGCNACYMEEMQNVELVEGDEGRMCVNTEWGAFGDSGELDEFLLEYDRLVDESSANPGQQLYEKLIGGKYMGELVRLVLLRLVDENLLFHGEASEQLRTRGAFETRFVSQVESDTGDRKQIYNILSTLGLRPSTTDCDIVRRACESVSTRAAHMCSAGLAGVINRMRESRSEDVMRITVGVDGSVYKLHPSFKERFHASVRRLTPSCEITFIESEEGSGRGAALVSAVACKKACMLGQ
As to the kind of experiment: GK activation test. The class given is biochemical. Conditions: test compound concentration needed to activate 50% of maximum activation ability; 4 mM 14C-labeled glucose, 2 mM ATP, room temperature, 20 minutes. The essentials: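 GST-tagged human liver GK from E. coli (0.24 μg/well) with 4 mM 14C-glucose, 2 mM ATP in Hepes-KOH pH 7.1, KCl, MgCl2, DTT, 1% DMSO, 20 min room temperature. Labeled glucose 6-phosphate captured on anion resin, eluted and counted. EC50 = concentration giving half of maximal activation.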
Regarding `COc1ccc(/C(=C\[C@H]2CC[C@@H](O)CC2)c2ccc(C3CC3)c(=O)[nH]2)cc1Cl` [Example 1-88, 6-[(E)-1-(3-Chloro-4-methoxyphenyl)-2-(cis-4-hydroxycyclohexyl)ethenyl]-3-cyclopropylpyridin-2(1H)-one], the EC50 (usually the concentration at which the effect is half-maximal) lay in the range of 500 to 3000 nM.

`O=C1CC[C@H](CC(c2ccc(S(=O)(=O)C3CC3)cc2)c2ccc(C3CC3)c(=O)[nH]2)N1` (single isomer, unassigned) [Example 4-307] yielded an EC50 of 3000 to 10000 nM.

Compound `CC(C)(C)c1ccc(/C(=C\[C@H]2CCC(=O)N2)c2ccc(CCC(N)=O)c(=O)[nH]2)cc1` [Example 4-201, 3-(6-{(E)-1-(4-tert-Butylphenyl)-2-[(2R)-5-oxopyrrolidin-2-yl]ethenyl}-2-oxo-1,2-dihydropyridin-3-yl)propanamide] displayed an EC50 of 500 to 3000 nM.

Compound `O=C1CC[C@H](/C=C(\c2ccc(Cl)c(OC(F)F)c2)c2ccc(C3CC3)c(=O)[nH]2)N1` [Example 4-130, 6-{(E)-1-[4-Chloro-3-(difluoromethoxy)phenyl]-2-[(2R)-5-oxopyrrolidin-2-yl]ethenyl}-3-cyclopropylpyridin-2(1H)-one] displayed an EC50 of 500 to 3000 nM.

`CCc1ccc(C(C[C@H]2CCC(=O)N2)c2ccc(C3CC3)c(=O)[nH]2)cc1` (single isomer, unassigned) [Example 4-302] displayed an EC50 of 10 to 500 nM.

Regarding `O=C1CC[C@H](/C=C(\c2cccc(C(F)(F)F)c2)c2ccc(Cl)c(=O)[nH]2)N1` [Example 4-261, 3-Chloro-6-{(E)-2-[(2R)-5-oxopyrrolidin-2-yl]-1-[3-(trifluoromethyl)phenyl]ethenyl}pyridin-2(1H)-one], the concentration giving a half-maximal response (EC50) was in the range of 3000 to 10000 nM.

In turn, `O=C1CC[C@H](/C=C(\c2ccc(SC3CC3)cc2)c2ccc(Cl)c(=O)[nH]2)N1` [Example 4-37, 3-Chloro-6-{(E)-1-[4-(cyclopropylsulfanyl)phenyl]-2-[(2R)-5-oxopyrrolidin-2-yl]ethenyl}pyridin-2(1H)-one] gave a concentration for a half-maximal effect (EC50) of 10 to 500 nM.

`COc1cc(F)c(C(C[C@H]2CCC(=O)N2)c2ccc(C3CC3)c(=O)[nH]2)cc1Cl` (single isomer, unassigned) [Example 4-347] gave a concentration for a half-maximal effect (EC50) of 3000 to 10000 nM.

The compound `NC(=O)Nc1ccc(/C(=C\C2CCCC2)c2ccc(Cl)c(=O)[nH]2)cc1` [Example 1-106, 1-{4-[(E)-1-(5-Chloro-6-oxo-1,6-dihydropyridin-2-yl)-2-cyclopentylethenyl]phenyl}urea] registered an EC50 of 500 to 3000 nM.

Compound `CC(C)NC(=O)Nc1ccc(/C(=C\[C@H]2CCC(=O)N2)c2ccc(Cl)c(=O)[nH]2)cc1` [Example 4-156, 1-(4-{(E)-1-(5-Chloro-6-oxo-1,6-dihydropyridin-2-yl)-2-[(2R)-5-oxopyrrolidin-2-yl]ethenyl}phenyl)-3-propan-2-ylurea] gave an EC50 of 3000 to 10000 nM.

The compound `Cn1cc(-c2ccc(/C(=C/[C@H]3CCC(=O)N3)c3ccc(C(C)(C)C)cc3)[nH]c2=O)cn1` [Example 4-183, 6-{(E)-1-(4-tert-Butylphenyl)-2-[(2R)-5-oxopyrrolidin-2-yl]ethenyl}-3-(1-methyl-1H-pyrazol-4-yl)pyridin-2(1H)-one] came in with an EC50 of 10 to 500 nM.

Consider `CC(C)(C)c1ccc(C(C[C@@H]2CCC(=O)N2)c2ccc(Cl)c(=O)[nH]2)cc1` (single isomer, unassigned) [Example 4-76], for which the half-maximal effective concentration (EC50) is 3000 to 10000 nM.

The compound `CN1CCC(C/C=C(\c2ccc(C(C)(C)C)cc2)c2ccc(Cl)c(=O)[nH]2)C1=O` (centres unmarked) [Example 6-19, 6-[(1E)-1-(4-tert-Butylphenyl)-3-(1-methyl-2-oxopyrrolidin-3-yl)prop-1-en-1-yl]-3-chloropyridin-2(1H)-one] returned a concentration for a half-maximal effect (EC50) of 500 to 3000 nM.

For the compound `O=C1CC[C@H](/C=C(\c2ccc(CC(F)(F)F)cc2)c2ccc(C3CC3)c(=O)[nH]2)N1` [Example 4-272, 3-Cyclopropyl-6-{(E)-2-[(2R)-5-oxopyrrolidin-2-yl]-1-[4-(2,2,2-trifluoroethyl)phenyl]ethenyl}pyridin-2(1H)-one], the EC50 lay within 10 to 500 nM.

Take `NC(=O)c1cccc(/C(=C\[C@H]2CCC(=O)N2)c2ccc(Cl)c(=O)[nH]2)c1` [Example 4-153, 3-{(E)-1-(5-Chloro-6-oxo-1,6-dihydropyridin-2-yl)-2-[(2R)-5-oxopyrrolidin-2-yl]ethenyl}benzamide]: the EC50 was in the range of 3000 to 10000 nM.

On to `CCOc1ccc(C(C[C@H]2CCC(=O)N2)c2ccc(Cl)c(=O)[nH]2)cc1F` (stereo partly drawn) [Example 4-241, 3-Chloro-6-{1-(4-ethoxy-3-fluorophenyl)-2-[(2R)-5-oxopyrrolidin-2-yl]ethyl}pyridin-2(1H)-one], for which the EC50 lay in the range of 3000 to 10000 nM.

The compound `CC(C)c1ccc(/C(=C\[C@H]2CCC(=O)N2)c2ccc(C3CC3)c(=O)[nH]2)cc1` [Example 4-67, 3-Cyclopropyl-6-{(E)-2-[(2R)-5-oxopyrrolidin-2-yl]-1-[4-(propan-2-yl)phenyl]ethenyl}pyridin-2(1H)-one] yielded an EC50 of 10 to 500 nM.

`O=C1CC[C@H](CC(c2ccc(OC3CC3)c(Cl)c2)c2ccc(C3CC3)c(=O)[nH]2)N1` (single isomer, unassigned) [Example 4-345] returned an EC50 of 3000 to 10000 nM.

Compound `CS(=O)(=O)Nc1ccc(/C(=C\[C@H]2CCC(=O)N2)c2ccc(Cl)c(=O)[nH]2)cc1` [Example 4-155, N-(4-{(E)-1-(5-Chloro-6-oxo-1,6-dihydropyridin-2-yl)-2-[(2R)-5-oxopyrrolidin-2-yl]ethenyl}phenyl)methanesulfonamide] yielded an EC50 of 500 to 3000 nM.

The compound `CC(C)c1ccc(/C(=C\C2CCOCC2)c2ccc(Cl)c(=O)[nH]2)cc1` [Example 1-109, 3-Chloro-6-[(E)-1-[4-(propan-2-yl)phenyl]-2-(tetrahydro-2H-pyran-4-yl)ethenyl]pyridin-2(1H)-one] yielded an EC50 of 500 to 3000 nM.

As to `CC(C)c1ccc(/C(=C\[C@H]2CCC(=O)N2C)c2ccc(Cl)c(=O)[nH]2)cc1` [Example 4-147, 3-Chloro-6-{(E)-2-[(2R)-1-methyl-5-oxopyrrolidin-2-yl]-1-[4-(propan-2-yl)phenyl]ethenyl}pyridin-2(1H)-one], the EC50 was 10 to 500 nM.

On to `O=C1CC[C@H](/C=C(\c2ccc(Cl)c(F)c2)c2ccc(C3CC3)c(=O)[nH]2)N1` [Example 4-111, 6-{(E)-1-(4-Chloro-3-fluorophenyl)-2-[(2R)-5-oxopyrrolidin-2-yl]ethenyl}-3-cyclopropylpyridin-2(1H)-one], for which the concentration for a half-maximal effect (EC50) lay within 10 to 500 nM.

`O=C1CC[C@H](/C=C(\c2ccc(OC3CCOCC3)c(Cl)c2)c2ccc(C3CC3)c(=O)[nH]2)N1` [Example 4-143, 6-{(E)-1-[3-Chloro-4-(tetrahydro-2H-pyran-4-yloxy)phenyl]-2-[(2R)-5-oxopyrrolidin-2-yl]ethenyl}-3-cyclopropylpyridin-2(1H)-one] had an EC50 of 10 to 500 nM.

`CCc1ccc(/C(=C/[C@H]2CCC(=O)C2)c2ccc(S(=O)(=O)C3CC3)cc2)[nH]c1=O` [Example 1-62, 6-{(E)-1-[4-(Cyclopropylsulfonyl)phenyl]-2-[(1S)-3-oxocyclopentyl]ethenyl}-3-ethylpyridin-2(1H)-one]: the EC50 fell in the range of 10 to 500 nM.

For `CC(C)Oc1ccc(C(C[C@H]2CCC(=O)N2)c2ccc(C3CC3)c(=O)[nH]2)cc1` (single isomer, unassigned) [Example 4-348], the EC50 was 500 to 3000 nM.

Take `CCOc1ccc(/C(=C\[C@H]2CCC(=O)N2)c2ccc(C3CC3)c(=O)[nH]2)cc1F` [Example 4-284, 3-Cyclopropyl-6-{(E)-1-(4-ethoxy-3-fluorophenyl)-2-[(2R)-5-oxopyrrolidin-2-yl]ethenyl}pyridin-2(1H)-one]: the half-maximal effective concentration (EC50) was in the range of 10 to 500 nM.

Take `CC(C)(C)c1ccc(C(C[C@@H]2CCC(=O)N2)c2ccc(Cl)c(=O)[nH]2)cc1` (single isomer, unassigned) [Example 4-77]: the half-maximal effective concentration (EC50) is 3000 to 10000 nM.

In turn, `CC(C)(C)c1ccc(/C(=C\CCN2C(=O)CCC2=O)c2ccc(Cl)c(=O)[nH]2)cc1` [Example 6-13, 1-[(3E)-4-(4-tert-Butylphenyl)-4-(5-chloro-6-oxo-1,6-dihydropyridin-2-yl)but-3-en-1-yl]pyrrolidine-2,5-dione] yielded a 50% effective concentration (EC50) of 500 to 3000 nM.

Take `CCc1ccc(/C(=C/[C@H]2CCC(=O)C2)c2ccc(SCCCN(CC)CC)c(Cl)c2)[nH]c1=O` [Example 1-77, 6-{(E)-1-(3-Chloro-4-{[3-(diethylamino)propyl]sulfanyl}phenyl)-2-[(1S)-3-oxocyclopentyl]ethenyl}-3-ethylpyridin-2(1H)-one]: the EC50 lay in the range of 10 to 500 nM.

Compound `CCN(CC)CCCC(=O)c1ccc(/C(=C\C2CCCC2)c2ccc(C(F)(F)F)c(=O)[nH]2)cc1` [Example 1-42, 6-[(E)-2-Cyclopentyl-1-{4-[4-(diethylamino)butanoyl]phenyl}ethenyl]-3-(trifluoromethyl)pyridin-2(1H)-one] showed an EC50 of 500 to 3000 nM.

`CS(=O)(=O)c1ccc(/C(=C\CCCO)c2ccc(C3CC3)c(=O)[nH]2)cc1` [Example 1-97, 3-Cyclopropyl-6-{(1E)-5-hydroxy-1-[4-(methylsulfonyl)phenyl]pent-1-en-1-yl}pyridin-2(1H)-one]: the concentration giving a half-maximal response (EC50) lay within 500 to 3000 nM.

Take `CN(C)S(=O)(=O)c1ccc(/C(=C\[C@H]2CCC(=O)N2)c2ccc(C3CC3)c(=O)[nH]2)cc1` [Example 4-292, 4-{(E)-1-(5-Cyclopropyl-6-oxo-1,6-dihydropyridin-2-yl)-2-[(2R)-5-oxopyrrolidin-2-yl]ethenyl}-N,N-dimethylbenzenesulfonamide]: the EC50 is 10 to 500 nM.

Values taken from patent US8822503B2, “2-pyridone compounds” (Taisho Pharmaceutical Co., Ltd, priority 2009, dated 2014).
